Measurements from patent US20230372328A1, “ORAL DELAYED BURST FORMULATION OF LOW-DOSE NALTREXONE AND METHODS FOR TREATING FIBROMYALGIA AND LONG COVID” (Scilex Holding Company, priority 2020, published 2023).
Counter-ions that a name gives are not always drawn. Like-named read-outs stand apart in the source and are kept apart here.

Legend:
[1] = cited from earlier work
[2] = Naltrexone HCl excipient compatibility (stressed stability) study, assay and impurities; type: physicochemical
Procedure: An excipient compatibility study was designed and conducted to screen excipients for the low dose naltrexone HCl delayed release capsules for formulation development purposes. Based on the formulation approach of a multi-particulate system filled in capsule dosage form, the drug layered spheres were coated with a functional pH dependent polymer film.
The physical mixtures were prepared by weighing individual material into glass crimp vials and mixing using a vortex. The open samples were left open and closed samples were tightly closed using a crimper.

[3] = cited from earlier work; remark: listed apart in the source
[4] = 40° C./ 75% RH - Closed - 2 weeks
[5] = 40° C./ 75% RH - Open - 2 weeks

In the case of `C=CCN1CC[C@]23c4c5ccc(O)c4OC2C(=O)CC[C@@]3(O)[C@H]1C5` (stereo partly drawn) [Naloxone hydrochloride, 17-allyl-4,5 α-epoxy, 3-14-dihydroxymorphinan-6-one hydrochloride], the solubility ([1]; in alcohol) is given as “slightly soluble”, the solubility ([1]; in ether and in chloroform) is given as “practically insoluble” and the solubility ([1]; in water, in dilute acids, and in strong alkali) is given as “soluble”.
With `O=C1CC[C@@]2(O)[C@H]3Cc4ccc(O)c5c4[C@@]2(CCN3CC2CC2)[C@H]1O5` [Naltrexone Control] the “Assay (%)” value [2, 4] was 99.3%, the “Impurities (%)” value [2, 4] was 0.6% and the “Assay (%)” value [2, 5] was 101.5%. The “Impurities (%)” value [2, 5] was 0.6%, the “Assay (%)” value ([2]; Initial) was 99.4% and the “Impurities (%)” value ([2]; Initial) was 0.4%.
In the case of `C=CCN1CC[C@]23c4c5ccc(O)c4O[C@H]2C(=O)CC[C@@]3(O)[C@H]1C5` [naloxone], the half-life ([3]; in vivo) is given as 3 h and the oral bioavailability ([3]; oral) is given as about 3%.
